# Columns and labels:
# MCF-7 = details: read-out: IC50 (cell viability); cited from earlier work
# h-e5′NT [1] = molecular target: T1, h-e5′NT (Homo sapiens, UniProt P21589); experiment: CD73; type: biochemical; details: for inhibition at 100 µM: read-out: inhibition% h-e5′NT
# T1 sequence (P21589 27-574): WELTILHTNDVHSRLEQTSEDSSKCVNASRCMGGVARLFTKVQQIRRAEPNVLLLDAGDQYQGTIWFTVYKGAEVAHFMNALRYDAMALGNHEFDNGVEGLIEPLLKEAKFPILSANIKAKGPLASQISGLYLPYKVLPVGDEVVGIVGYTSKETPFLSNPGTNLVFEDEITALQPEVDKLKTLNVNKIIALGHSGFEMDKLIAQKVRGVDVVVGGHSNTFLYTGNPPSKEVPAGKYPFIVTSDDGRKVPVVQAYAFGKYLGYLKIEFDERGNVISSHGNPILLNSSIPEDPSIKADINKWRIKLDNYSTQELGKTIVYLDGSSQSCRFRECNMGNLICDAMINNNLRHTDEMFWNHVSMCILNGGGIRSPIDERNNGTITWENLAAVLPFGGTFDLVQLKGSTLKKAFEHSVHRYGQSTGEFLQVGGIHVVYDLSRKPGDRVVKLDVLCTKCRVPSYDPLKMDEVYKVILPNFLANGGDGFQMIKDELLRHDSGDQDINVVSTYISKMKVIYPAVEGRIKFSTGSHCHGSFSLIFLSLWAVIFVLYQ
# r-e5′NT [2] = molecular target: T2, r-e5′NT (Rattus norvegicus, UniProt P21588); experiment: CD73; type: biochemical; details: for inhibition at 100 µM: read-out: inhibition% r-e5′NT
# T2 sequence (P21588 29-576): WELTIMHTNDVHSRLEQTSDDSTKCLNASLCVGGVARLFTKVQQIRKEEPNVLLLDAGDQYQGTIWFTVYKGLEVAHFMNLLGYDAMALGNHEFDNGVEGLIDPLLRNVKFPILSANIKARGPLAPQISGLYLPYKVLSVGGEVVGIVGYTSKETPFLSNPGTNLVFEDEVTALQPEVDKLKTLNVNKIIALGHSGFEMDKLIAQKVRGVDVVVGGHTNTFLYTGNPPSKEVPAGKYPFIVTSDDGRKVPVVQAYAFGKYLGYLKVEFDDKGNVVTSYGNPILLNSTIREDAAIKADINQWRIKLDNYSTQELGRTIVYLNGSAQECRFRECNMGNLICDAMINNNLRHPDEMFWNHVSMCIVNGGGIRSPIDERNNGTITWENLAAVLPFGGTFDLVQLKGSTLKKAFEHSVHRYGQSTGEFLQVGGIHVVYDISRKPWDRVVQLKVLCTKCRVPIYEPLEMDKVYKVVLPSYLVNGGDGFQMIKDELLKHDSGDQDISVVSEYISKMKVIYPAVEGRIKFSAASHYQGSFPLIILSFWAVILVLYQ
# h-TNAP = molecular target: T3, h-TNAP (Homo sapiens, UniProt P05186); experiment: h-TNAP inhibition assay; type: biochemical; details: for inhibition at 100 µM: read-out: inhibition% h-TNAP
# T3 sequence (P05186 18-524): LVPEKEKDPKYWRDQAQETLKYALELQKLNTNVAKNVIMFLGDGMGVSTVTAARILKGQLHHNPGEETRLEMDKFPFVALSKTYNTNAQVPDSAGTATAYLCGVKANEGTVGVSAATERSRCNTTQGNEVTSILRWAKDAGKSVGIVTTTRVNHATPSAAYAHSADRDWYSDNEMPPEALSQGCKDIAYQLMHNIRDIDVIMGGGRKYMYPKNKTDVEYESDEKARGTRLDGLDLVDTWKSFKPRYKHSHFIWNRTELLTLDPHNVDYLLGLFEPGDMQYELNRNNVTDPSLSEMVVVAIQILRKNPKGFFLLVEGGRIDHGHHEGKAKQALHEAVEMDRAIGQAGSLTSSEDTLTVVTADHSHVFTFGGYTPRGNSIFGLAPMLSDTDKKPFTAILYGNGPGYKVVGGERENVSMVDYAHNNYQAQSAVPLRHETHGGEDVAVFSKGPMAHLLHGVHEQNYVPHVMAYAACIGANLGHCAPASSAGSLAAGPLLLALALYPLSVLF
# h-ENPP1 = molecular target: T4, h-ENPP1 (Homo sapiens, UniProt P22413); experiment: h-ENPP1 inhibition assay; type: biochemical; details: read-out: inhibition% h-ENPP1
# T4 sequence (P22413 1-925): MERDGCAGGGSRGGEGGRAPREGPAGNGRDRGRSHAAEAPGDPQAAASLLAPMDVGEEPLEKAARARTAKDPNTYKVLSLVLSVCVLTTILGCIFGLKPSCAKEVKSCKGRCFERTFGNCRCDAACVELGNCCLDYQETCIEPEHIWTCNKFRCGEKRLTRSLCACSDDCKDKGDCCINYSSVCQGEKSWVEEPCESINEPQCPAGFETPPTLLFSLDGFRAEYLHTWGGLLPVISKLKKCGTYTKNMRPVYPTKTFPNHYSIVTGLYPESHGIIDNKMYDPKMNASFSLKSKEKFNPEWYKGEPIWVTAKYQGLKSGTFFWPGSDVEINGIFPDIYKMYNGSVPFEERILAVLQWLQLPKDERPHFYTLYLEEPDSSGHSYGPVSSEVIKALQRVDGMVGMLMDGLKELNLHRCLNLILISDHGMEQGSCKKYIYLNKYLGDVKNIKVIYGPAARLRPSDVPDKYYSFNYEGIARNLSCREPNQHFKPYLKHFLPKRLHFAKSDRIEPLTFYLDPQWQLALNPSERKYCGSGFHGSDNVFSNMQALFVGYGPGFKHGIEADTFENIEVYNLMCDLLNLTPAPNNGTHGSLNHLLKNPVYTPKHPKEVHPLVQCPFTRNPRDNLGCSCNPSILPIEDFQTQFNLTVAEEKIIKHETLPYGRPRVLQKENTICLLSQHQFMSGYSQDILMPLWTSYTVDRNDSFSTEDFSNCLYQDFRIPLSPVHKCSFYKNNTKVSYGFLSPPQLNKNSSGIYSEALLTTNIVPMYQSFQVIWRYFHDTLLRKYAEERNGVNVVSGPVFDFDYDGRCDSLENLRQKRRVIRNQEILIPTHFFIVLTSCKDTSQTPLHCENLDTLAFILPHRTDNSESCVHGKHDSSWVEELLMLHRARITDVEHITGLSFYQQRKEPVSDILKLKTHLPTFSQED
# h-ENPP3 = molecular target: T5, h-ENPP3 (Homo sapiens, UniProt O14638); experiment: h-ENPP3 inhibition assay; type: biochemical; details: for selectivity for h-ENPP3 between the two h-ENPP isozymes: h-ENPP3 versus h-ENPP1
# T5 sequence (O14638 1-875): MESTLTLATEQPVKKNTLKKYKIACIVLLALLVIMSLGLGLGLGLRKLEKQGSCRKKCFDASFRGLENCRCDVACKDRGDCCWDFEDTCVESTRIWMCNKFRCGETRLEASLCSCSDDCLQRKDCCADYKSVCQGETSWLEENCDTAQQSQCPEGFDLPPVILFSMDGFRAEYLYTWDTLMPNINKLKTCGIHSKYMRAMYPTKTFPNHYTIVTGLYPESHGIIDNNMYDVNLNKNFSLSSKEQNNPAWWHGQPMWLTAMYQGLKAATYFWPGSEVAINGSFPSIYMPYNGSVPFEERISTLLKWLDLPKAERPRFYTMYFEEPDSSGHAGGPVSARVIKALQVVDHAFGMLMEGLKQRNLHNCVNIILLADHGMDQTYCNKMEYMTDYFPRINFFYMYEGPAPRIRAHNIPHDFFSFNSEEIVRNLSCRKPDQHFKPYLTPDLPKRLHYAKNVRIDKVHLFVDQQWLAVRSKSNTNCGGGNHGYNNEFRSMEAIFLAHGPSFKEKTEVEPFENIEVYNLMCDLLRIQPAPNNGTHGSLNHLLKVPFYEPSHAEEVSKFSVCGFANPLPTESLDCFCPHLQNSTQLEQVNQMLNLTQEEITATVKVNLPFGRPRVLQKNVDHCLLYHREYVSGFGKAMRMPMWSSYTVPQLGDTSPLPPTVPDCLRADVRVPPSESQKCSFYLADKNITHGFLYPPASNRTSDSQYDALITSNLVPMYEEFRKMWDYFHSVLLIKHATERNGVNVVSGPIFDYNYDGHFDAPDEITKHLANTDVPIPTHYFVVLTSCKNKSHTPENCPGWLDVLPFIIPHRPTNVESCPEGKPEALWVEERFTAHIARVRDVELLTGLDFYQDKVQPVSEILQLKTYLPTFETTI
# r-e5′NT [3] = molecular target: T2, r-e5′NT; experiment: Enzyme kinetic studies, r-e5′NT; type: biochemical; details: Lineweaver–Burk
# h-e5′NT [4] = molecular target: T1, h-e5′NT; experiment: Enzyme kinetic studies, h-e5′NT; type: biochemical; details: Lineweaver–Burk
smiles,measurement,setting,value
COc1cccc(OS(=O)(=O)c2ccc(C)cc2)c1 [3-methoxyphenyl p-toluenesulfonate],IC50,MCF-7,89800 nM
"COc1ccc(S(=O)(=O)Oc2ccccc2NC(=O)Cc2c[nH]c3ccccc23)cc1 [5d, 2-(2-(1H-indol-3-yl)acetamido)phenyl 4-methoxy-benzenesulfonate]",IC50,h-e5′NT [1],3460 ± 120 nM
same,IC50,r-e5′NT [2],1770 ± 120 nM
same,IC50,h-TNAP,5180 ± 460 nM
"CC(C)S(=O)(=O)Oc1ccccc1NC(=O)Cc1c[nH]c2ccccc12 [5k, 2-(2-(1H-indol-3-yl)acetamido)phenyl propane-2-sulfonate]",inhibition at 100 µM,h-e5′NT [1],37.5%
same,inhibition at 100 µM,r-e5′NT [2],28.6%
same,inhibition at 100 µM,h-TNAP,31.8%
"O=C(Cc1c[nH]c2ccccc12)Nc1ccccc1OS(=O)(=O)c1ccc(Cl)cc1 [5l, 2-(2-(1H-indol-3-yl)acetamido)phenyl 4-chlorobenzenesulfonate]",IC50,h-e5′NT [1],430 ± 30 nM
same,IC50,r-e5′NT [2],5670 ± 110 nM
same,IC50,h-TNAP,1690 ± 180 nM
COc1ccc(OS(=O)(=O)c2ccc(C)cc2)cc1 [p-methoxyphenyl p-toluenesulfonate],IC50,MCF-7,126000 nM
"O=C(Cc1c[nH]c2ccccc12)Nc1ccccc1OS(=O)(=O)c1ccc(Br)cc1 [5f, 2-(2-(1H-indol-3-yl)acetamido)phenyl 4-bromobenzenesulfonate]",IC50,h-e5′NT [1],690 ± 1 nM
same,IC50,r-e5′NT [2],1640 ± 20 nM
same,IC50,h-TNAP,6580 ± 250 nM
"O=C(Cc1c[nH]c2ccccc12)Nc1ccccc1OS(=O)(=O)c1ccc(-c2ccccc2)cc1 [5e, 2-(2-(1H-indol-3-yl)acetamido)phenyl [1,1′-biphenyl]-4-sulfonate]",IC50,h-e5′NT [1],560 ± 16 nM
same,IC50,r-e5′NT [2],980 ± 20 nM
same,IC50,h-TNAP,1060 ± 30 nM
"Cc1ccc(S(=O)(=O)Oc2ccccc2NC(=O)Cc2c[nH]c3ccccc23)cc1 [5o, 2-(2-(1H-indol-3-yl)acetamido)phenyl 4-methylbenzenesulfonate]",IC50,h-e5′NT [1],3210 ± 830 nM
same,IC50,r-e5′NT [2],4860 ± 40 nM
same,inhibition at 100 µM,h-ENPP1,28.3%
same,IC50,h-ENPP3,2670 ± 460 nM
same,selectivity for h-ENPP3 between the two h-ENPP isozymes,h-ENPP3,more effective and selective for h-ENPP3
same,IC50,h-TNAP,3370 ± 50 nM
"O=C(Cc1c[nH]c2ccccc12)Nc1ccccc1OS(=O)(=O)C(F)(F)F [5j, 2-(2-(1H-indol-3-yl)acetamido)phenyl trifluoromethanesulfonate]",IC50,h-e5′NT [1],890 ± 40 nM
same,IC50,r-e5′NT [2],5120 ± 610 nM
same,IC50,h-TNAP,1680 ± 70 nM
"O=C(Cc1c[nH]c2ccccc12)Nc1ccccc1OS(=O)(=O)c1ccccc1Cl [5a, 2-(2-(1H-indol-3-yl)acetamido)phenyl 2-chlorobenzenesulfonate]",IC50,h-e5′NT [1],1190 ± 20 nM
same,inhibition at 100 µM,r-e5′NT [2],22.7%
same,IC50,h-TNAP,1600 ± 110 nM
"Cc1ccc(S(=O)(=O)Oc2ccccc2NC(=O)Cc2c[nH]c3ccccc23)cc1Cl [5g, 2-(2-(1H-indol-3-yl)acetamido)phenyl 3-chloro-4-methylbenzenesulfonate]",IC50,h-e5′NT [1],4410 ± 190 nM
same,IC50,r-e5′NT [2],1850 ± 110 nM
same,IC50,h-TNAP,590 ± 80 nM
"O=C(Cc1c[nH]c2ccccc12)Nc1ccccc1OS(=O)(=O)c1ccc(I)cc1 [5i, 2-(2-(1H-indol-3-yl)acetamido)phenyl 4-iodobenzenesulfonate]",IC50,h-e5′NT [1],4850 ± 550 nM
same,IC50,r-e5′NT [2],810 ± 50 nM
same,IC50,h-TNAP,2270 ± 240 nM
same,Mode of inhibition r-e5′NT,r-e5′NT [3],competitive
"O=C(Cc1c[nH]c2ccccc12)Nc1ccccc1OS(=O)(=O)Cc1ccccc1 [5b, 2-(2-(1H-indol-3-yl)acetamido)phenyl phenylmethanesulfonate]",IC50,h-e5′NT [1],13200 ± 3140 nM
same,inhibition at 100 µM,r-e5′NT [2],38.5%
same,inhibition at 100 µM,h-TNAP,42.4%
"O=C(Cc1c[nH]c2ccccc12)Nc1ccccc1OS(=O)(=O)c1ccc(F)cc1 [5c, 2-(2-(1H-indol-3-yl)acetamido)phenyl 4-fluorobenzenesulfonate]",IC50,h-e5′NT [1],370 ± 30 nM
same,IC50,r-e5′NT [2],1660 ± 40 nM
same,IC50,h-TNAP,1480 ± 20 nM
same,Mode of inhibition h-e5′NT,h-e5′NT [4],un-competitive
"O=C(Cc1c[nH]c2ccccc12)Nc1ccccc1OS(=O)(=O)c1cccc2cccnc12 [5m, 2-(2-(1H-indol-3-yl)acetamido)phenyl quinoline-8-sulfonate]",IC50,h-e5′NT [1],6530 ± 670 nM
same,inhibition at 100 µM,r-e5′NT [2],30%
same,IC50,h-TNAP,1300 ± 380 nM
"O=C(Cc1c[nH]c2ccccc12)Nc1ccccc1OS(=O)(=O)c1cccs1 [5n, 2-(2-(1H-indol-3-yl)acetamido)phenyl thiophene-2-sulfonate]",inhibition at 100 µM,h-e5′NT [1],44.7%
same,inhibition at 100 µM,r-e5′NT [2],46.6%
same,inhibition at 100 µM,h-ENPP1,38%
same,IC50,h-ENPP3,2550 ± 70 nM
same,selectivity for h-ENPP3 between the two h-ENPP isozymes,h-ENPP3,more effective and selective for h-ENPP3
same,inhibition at 100 µM,h-TNAP,28.9%

# Reference: PMC10562900 (RSC Advances, 2023)
